Experimental data reported in patent US20030109529A1, “Use of s-triazines for treating Apicomplexan parasitic infections” (priority 1999, published 2003).

Experiments:
[1] = system: antifolate-resistant P. falciparum; experiment: In vitro RBC culture, antifolate-resistant P. falciparum; assay type: cell-based, Plasmodium falciparum; conditions: Example 4, 48 hrs or 96 hrs after treatment
Method: (§1) Briefly, a red blood cell suspension at a malarial (wild type Plasmodium falciparum) infection rate of approximately 1% was added to each well of a 96 well micro titer plate. The test compound was added to the cultures at final concentrations of 2.0, 0.2 or 0.02 μM. and incubated in an environment of 5% CO2, 5% O2 and 90% N2 at 37° C. Every 24 hrs the dish was removed, 100 μl of spent medium removed and 100 μl of fresh, compound containing-medium was added back to each well. This procedure was repeated daily.
(§2) At 48 hrs and again at 96 hrs, blood smears were made from each well and 500 Red Blood Cells (RBCs) were counted and inspected for malarial infection. The percent infection rate was then determined for each experimental condition tested.
The procedure set forth in Example 1 is utilized for testing the effectiveness of triazine and atrazine against antifolate-resistant P. falciparum.

[2] = system: mefloquine resistant P. falciparum (Mfl res); experiment: In vitro RBC culture, mefloquine resistant P. falciparum; assay type: cell-based, Plasmodium falciparum
Method: as §1, §2
The procedure set forth in Example 1 is utilized for testing the effectiveness of mefloquine and atrazine against mefloquine-resistant P. falciparum.
(§3) Malaria parasite (P. falciparum) was grown in culture as described previously. At 48 hours and 96 hours of treatment, red blood cells were taken from culture and the percent red blood cells infected with the parasite was determined by microscopic examination.

[3] = system: wild type Plasmodium falciparum; experiment: In vitro red blood cell culture infected with wild type Plasmodium falciparum, percent RBCs infected; assay type: cell-based; conditions: for effectiveness compared with chloroquine (text to Table 2): 2.0-0.02 μM
Method: The in vitro method used to test the anti-malarial effectiveness of various s-triazines was adapted from Trager, 1994, Methods in Cell Biology Vol 45:7-26.
as §1, §2, §3
The data in Table 2 represent percent red blood cell (RBC) infection rate at 48 hrs of treatment with the antimalarial test compound. Control cultures were 35% RBC infected.

[4] = system: chloroquine resistant P. falciparum (Clq res); experiment: In vitro RBC culture, chloroquine resistant P. falciparum; assay type: cell-based, Plasmodium falciparum
[5] = system: multi-drug resistant P. falciparum (MDR); experiment: In vitro RBC culture, multi-drug resistant P. falciparum; assay type: cell-based, Plasmodium falciparum; conditions: multidrug-resistant, 96 hrs of treatment, 0.02 μM; control 25
Method: as §1, §2, §3

Plasmodium berghi = experiment: In vivo evaluation against Plasmodium berghi in Lewis rats, intravenous treatment; set-up: species or system rat; conditions: 20 mg/kg I.V., 24 and 48 hrs
Method: In vivo testing was performed using juvenile female Lewis rats. Rats were inoculated intraperitoneally with 30,000,000 Plasmodium berghi infected RBCs. Rats were bled daily from the tail vein and, when parasitemia reached 1-3%, therapy was begun.
Blood smears were obtained at 24 and 48 hrs. The percent RBCs infected was then calculated after counting and inspecting 500 RBCs for each rat.

[6] = system: yeast transfected with malarial dihydrofolate reductase (folate sensitive); experiment: Yeast assay for antifolate activity, folate sensitive yeast; assay type: cell-based, Saccharomyces cerevisiae; conditions: 48 hours of treatment
Method: (§4) We have established a in vitro yeast assay model for determining sensitivity to antifolate anti-malarials.
(§5) Saccharomyces cerevisiae was grown in culture and after 48 hours of treatment as described below the growth of the yeast was determined. Control (i.e., yeast grown with no treatment) is considered to be 100% growth. Drug treatment was then related to the controls as a percent of control growth. S. cerevisiae types tested included wild type yeast, yeast made sensitive to antifolate antimalarials by transfecting yeast with malarial dihydrofolate reductase (folate sensitive or folate sen), yeast transfected but not sensitive to antifolate antimalarials (folate insensitive or folate insen).

[7] = system: yeast transfected but not sensitive to antifolate antimalarials (folate insensitive); experiment: Yeast assay for antifolate activity, folate insensitive yeast; assay type: cell-based, Saccharomyces cerevisiae; conditions: 48 hours of treatment
Method: as §4, §5

P. berghei = experiment: In vivo efficacy against P. berghei in rats, single oral dose; set-up: species or system rat; conditions: single oral dose (Chloroquine 20 mg/kg, Atrazine 100 mg/kg) 4 h after inoculation
Method: Rats weighing 60-70 gms were inoculated with P. berghei infected rat red blood cells. […] Blood was obtained 4 days and 11 days later and parasitemia assessed using light microscopy of blood smears. The percent parasitemia (i.e., the presence of parasites in the blood) was then determined for each group and the data are summarized in the table below: […]

P. falciparum = experiment: Isobologram analysis of chloroquine and atrazine in vitro against P. falciparum; assay type: cell-based, Plasmodium falciparum; conditions: each drug alone at its ID50, or combinations of the stated fractions of each ID50
Method: Drugs can interact in additive, antagonistic or synergistic manner. See Berenbaum, J. Infect. Dis., 137:122-130, 1978. The isobologram assay permits determination of the type of interaction that occurs between drugs of interest. The ID50, or […], for both drugs was calculated.
Next, the drugs were tested in vitro at the ID50 for each drug alone and various combinations of drugs as described below:
These combinations of drugs were tested in vitro against P. falciparum and the data analyzed.

[8] = 48 hrs of treatment, 0.02 μM, control 35%
[9] = 48 hrs of treatment, 0.2 μM, control 35%
[10] = 48 hrs of treatment, 2.0 μM, control 35%

c1ncncn1 [triazine]
percentage of RBCs infected with antifolate-resistant P. falciparum [1]: significantly higher level of RBCs being infected

OC(c1cc(C(F)(F)F)nc2c(C(F)(F)F)cccc12)C1CCCCN1 (centres unmarked) [mefloquine, reference compound]
percentage of RBCs infected with mefloquine-resistant P. falciparum ([2]; Example 3, 48 hrs or 96 hrs after treatment): significantly higher level of RBCs being infected

CCN(CC)CCCC(C)Nc1ccnc2cc(Cl)ccc12 (centres unmarked) [chloroquine, reference compound]
Red Blood Cell Infection Rate [3, 8]: 4%
Red Blood Cell Infection Rate [3, 9]: 0%
Red Blood Cell Infection Rate [3, 10]: 0%
Red Blood Cell Infection Rate ([3]; wild type, 96 hrs of treatment, 0.02 μM, control 18): 3%
Red Blood Cell Infection Rate ([2]; mefloquine-resistant, 96 hrs of treatment, 0.02 μM, control 24): 13%
percentage of RBCs infected with chloroquine-resistant P. falciparum ([4]; Example 2, 48 hrs or 96 hrs after treatment): significantly higher level of RBCs being infected
Red Blood Cell Infection Rate ([4]; chloroquine-resistant, 96 hrs of treatment, 0.02 μM, control 28): 28%
Red Blood Cell Infection Rate [5]: 22%
in vivo percentage of RBCs infected with P. berghi compared to non-treated controls (FIG. 6) (Plasmodium berghi): disease dramatically reduced
yeast growth (FIG. 7) [6]: Neither chloroquine (Clq) nor atrazine affected growth
yeast growth (FIG. 7) [7]: Neither chloroquine (Clq) nor atrazine affected growth
Parasitemia Day 4 (P. berghei; ethanol control 24%): 5.8%
Parasitemia Day 11 (P. berghei; ethanol control 42%): 11%
Percent Growth Inhibition (P. falciparum): 60%

CCNc1nc(Cl)nc(NCC)n1 [simazine, 2-chloro-4,6-di(ethylamino)-s-triazine]
Red Blood Cell Infection Rate [3, 8]: 3%
Red Blood Cell Infection Rate [3, 9]: 0%
Red Blood Cell Infection Rate [3, 10]: 0%
effectiveness compared with chloroquine (text to Table 2) ([3]; 48 hrs of treatment): substantially similar in effectiveness as chloroquine

CCNc1nc(Cl)nc(NC(C)(C)C#N)n1 [cyanazine, 2-[[4-chloro-6-(ethylamino)-s-triazin-2-yl]amino]-2-methyl propionitrile]
Red Blood Cell Infection Rate [3, 8]: 18%
Red Blood Cell Infection Rate [3, 9]: 17%
Red Blood Cell Infection Rate [3, 10]: 16%
effectiveness compared with chloroquine (text to Table 2) ([3]; 48 hrs of treatment): less effective

CC(C)Nc1nc(Cl)nc(NC(C)C)n1 [propazine, 2-chloro-4,6-di(isopropylamino)-s-triazine]
Red Blood Cell Infection Rate [3, 8]: 5%
Red Blood Cell Infection Rate [3, 9]: 1%
Red Blood Cell Infection Rate [3, 10]: 1%
effectiveness compared with chloroquine (text to Table 2) ([3]; 48 hrs of treatment): substantially similar in effectiveness as chloroquine

CCNc1nc(NC(C)C)nc(SC)n1 [ametryn, 2-ethylamino-4-isopropylamino-6-thiomethoxy-s-triazine]
Red Blood Cell Infection Rate [3, 8]: 20%
Red Blood Cell Infection Rate [3, 9]: 11%
Red Blood Cell Infection Rate [3, 10]: 10%
effectiveness compared with chloroquine (text to Table 2) ([3]; 48 hrs of treatment): less effective
